Laboratory results reported in patent publication US20110060028A1, “COMBINATION THERAPY” (UNIVERSITY OF YORK, priority 2007, published 2011).
d = 2'-deoxy (DNA)

Key:
Assay type in all cases: cell-based, human
HCT116 p53+/+ cells = test: Apoptosis (annexin-V staining, phase contrast); conditions: 24 h drug exposure
Description: (§1) Phase contrast digital images were captured using an Axiovert 200M microscope (Zeiss). Apoptotic cells were identified by flow cytometry using annexin-V-Fluos (Roche) following the manufacturer's protocol.
(§2) Cells for transfection and/or drug treatment were plated at a density of 6×10^4 (ARPE-19) or 1.4×10^5 (HCT116) per well in 6-well plates. For the experiment in FIG. 3a, ARPE-19 cells were plated at a density of 4×10^4 per well. Transfections were performed 24 hours post-plating in Opti-MEM (Gibco) using Oligofectamine (Invitrogen) according to the manufacturer's instructions. Chemically synthesized, HPLC-purified siRNAs were obtained from Qiagen or Dharmacon. SIRT1 siRNA sequence has been described^27. JNK1 siRNA sequences were: Sense 5′-CUCCACCACCAAAGAUCCC(dTdT)-3′, antisense 5′-GGGAUCUUUGGUGGUGGAG(dTdT)-3′. JNK2 siRNA sequences were: Sense 5′-GAGCUGGUGAAAGGUUGUG(dTdT)-3′, antisense 5′-CACAACCUUU CACCAGCUC(dTdT)-3′. Specificities of SIRT1 siRNA, JNK1 sIRNA and JNK2 siRNA have been validated previously¢ (Ahmed and Milner, in submission). Cells were harvested for analysis 48 h post-transfection, except where indicated otherwise. For drug treatment, drugs were applied by complete media replacement 48 h post-plating at final concentration 375 μM (5-FU) or 425 μM (uridine). […]

SIRT1 mRNA = test: Quantitative RT-PCR of SIRT1 mRNA; conditions: for SIRT1 mRNA estimated t1/2: following administration of 5-FU
Description: (§3) Epithelial cancer cell lines RKO, LoVo, DLD-1, HT29, U2OS, SAOS-2, MCF7, HTB-126, HT-1080 and SiHa were obtained from ATCC. Isogenic colorectal carcinoma cell lines HCT116 p53+/+ and HCT116 p53−/− were a kind gift of Bert Vogelstein. Non-cancer cells were normal diploid fibroblasts (NDF) and ARPE-19 immortalised retinal epithelial cells (ATCC), and normal human embryonic keratinocytes (NHEK, Invitrogen). Cells were cultured according to the supplier's protocols. siRNA sequences, transfection protocols and target validations were as described (Ref. 27 and Methods). For drug treatments, cells were treated 48 hours post-plating with final concentration of 5-FU (375 OM) and uridine (425 OM) as indicated and harvested 24 h later. For combined transfection/drug treatment, drugs were applied 24 h post-transfection and cells harvested 24 h later. For time course analyses cells were harvested at indicated time points post-treatment.
Cellular mRNAs were extracted for quantitative RT-PCR as previously described^27. Primers and thermal cycling conditions were as described^27 (Methods); quantifications were performed in triplicate.
(§4) Cells for transfection and/or drug treatment were plated at a density of 6×10^4 (ARPE-19) or 1.4×10^5 (HCT116) per well in 6-well plates. For the experiment in FIG. 3a, ARPE-19 cells were plated at a density of 4×10^4 per well. Transfections were performed 24 hours post-plating in Opti-MEM (Gibco) using Oligofectamine (Invitrogen) according to the manufacturer's instructions. Chemically synthesized, HPLC-purified siRNAs were obtained from Qiagen or Dharmacon. SIRT1 siRNA sequence has been described^27. JNK1 siRNA sequences were: Sense 5′-CUCCACCACCAAAGAUCCC(dTdT)-3′, antisense 5′-GGGAUCUUUGGUGGUGGAG(dTdT)-3′. JNK2 siRNA sequences were: Sense 5′-GAGCUGGUGAAAGGUUGUG(dTdT)-3′, antisense 5′-CACAACCUUU CACCAGCUC(dTdT)-3′. Specificities of SIRT1 siRNA, JNK1 sIRNA and JNK2 siRNA have been validated previously¢ (Ahmed and Milner, in submission). Cells were harvested for analysis 48 h post-transfection, except where indicated otherwise. For drug treatment, drugs were applied by complete media replacement 48 h post-plating at final concentration 375 μM (5-FU) or 425 μM (uridine). Cells were harvested for analysis 24h following application of drugs, or at the indicated timepoints for time-course analysis. For combined transfection/drug experiments, drugs were applied approximately […] post-transfection. Cells from combined transfection/drug experiments were harvested for analysis after 24 hours of drug exposure (˜48 hours post-transfection).
Relative mRNA levels were quantitated by realtime RT-PCR. […] SIRT1 primers 5′-[…]-3′ and 5′-[…]-3′ were used in the thermal cycle: 50° C. for 30 minutes, 94° C. for 15 minutes, followed by 35 cycles of 94° C. for 30 seconds, 55° C. for 30 seconds, 72° C. for 30 seconds, then 75° C. for 15 seconds before the plate was read. JNK1 primers 5′-[…]-3′ and 5′-[…]-3′ were used in the thermal cycle: 50° C. for 30 minutes, 94° C. for 15 minutes, followed by 35 cycles of 94° C. for 30 seconds, 57° C. for 30 seconds, 72° C. for 30 seconds, then 75° C. for 15 seconds before the plate was read. JNK2 primers 5′-[…]-3′ and 5′-[…]-3′ were used in the thermal cycle: 50° C. for 30 minutes, 94° C. for 15 minutes, followed by 35 cycles of 94° C. for 30 seconds, 55° C. for 30 seconds, 72° C. for 30 seconds, then 75° C. for 15 seconds before the plate was read. All RT-PCR quantifications were performed in triplicate.

laminA/C and GAPDH mRNAs = test: Quantitative RT-PCR of laminA/C and GAPDH mRNAs; conditions: 5-FU for 24 h
Description: Epithelial cancer cell lines RKO, LoVo, DLD-1, HT29, U2OS, SAOS-2, MCF7, HTB-126, HT-1080 and SiHa were obtained from ATCC. Isogenic colorectal carcinoma cell lines HCT116 p53+/+ and HCT116 p53−/− were a kind gift of Bert Vogelstein. Non-cancer cells were normal diploid fibroblasts (NDF) and ARPE-19 immortalised retinal epithelial cells (ATCC), and normal human embryonic keratinocytes (NHEK, Invitrogen). Cells were cultured according to the supplier's protocols. siRNA sequences, transfection protocols and target validations were as described (Ref. 27 and Methods). […]
Cellular mRNAs were extracted for quantitative RT-PCR as previously described^27. Primers and thermal cycling conditions were as described^27 (Methods); quantifications were performed in triplicate. […]
Relative mRNA levels were quantitated by realtime RT-PCR. […] SIRT1 primers 5′-[…]-3′ and 5′-[…]-3′ were used in the thermal cycle: 50° C. for 30 minutes, 94° C. for 15 minutes, followed by 35 cycles of 94° C. for 30 seconds, 55° C. for 30 seconds, 72° C. for 30 seconds, then 75° C. for 15 seconds before the plate was read. JNK1 primers 5′-[…]-3′ and 5′-[…]-3′ were used in the thermal cycle: 50° C. for 30 minutes, 94° C. for 15 minutes, followed by 35 cycles of 94° C. for 30 seconds, 57° C. for 30 seconds, 72° C. for 30 seconds, then 75° C. for 15 seconds before the plate was read. […]

ARPE-19 cells = test: Cell viability / apoptosis (annexin-V staining, phase contrast); conditions: 24 h drug exposure
Description: as §1, §2

SIRT1 = test: Immunoblotting of total SIRT1, SIRT1 S27P and SIRT1 S47P
Description: as §3
(§5) Cells were prepared as described (Methods). For immunoblotting equivalent numbers of cells, or equivalent amounts of protein, were loaded in each lane. Antibodies were: Anti-SIRT1 (H-300, Santa Cruz), anti-phosphoserine27-SIRT1 (#2327, Cell Signaling), anti-phosphoserine47-SIRT1 (#2314, Cell Signaling), anti-actin (MAB1501, Chemicon), anti-p53 (00-1, Santa Cruz), anti-acetylated-p53-lysine382 (#2525, Cell Signaling), anti-JNK1 (F-3, Santa Cruz), anti-JNK2 (#4672, Cell Signaling). Visualisation of bound antibodies was by ECL, with quantitation by densitometry of signals within the linear range.
as §4
For preparation of total protein lysates, cell counts or protein assay was performed, with the method chosen consistent within each experiment. Cells were lysed in lysis buffer IPAMN (10 mM TRIS base pH 8.0, 140 mM NaCl, 2 mM CaCl2, 0.5% NP-40, 5 U ml^−1 micrococcal nuclease) for 3 minutes at room temperature followed by addition of 0.25× volumes of 6×SDS-PAGE sample buffer and brief heating to 90° C. Samples for protein assay were withdrawn before addition of 6×SDS-PAGE sample buffer, and assayed using BCA Protein Assay Kit (Pierce) according to the manufacturers instructions. Equivalent numbers of cells, or equivalent amounts of protein, were electrophoresed on 10% or 15% SDS-PAGE, electrobiotted to Protran membrane (Schleicher&Schuell) using a wet-blot transfer system, blocked for 1 hour at room temperature and probed with primary antibodies overnight at 4° C. […]

p53 = test: Immunoblotting of p53 and p53 K382Ac
Description: as §3, §5
as §2, with “(uridine). Cells were harvested for analysis 24h following application of drugs, or at the indicated timepoints for time-course analysis.” for “(uridine).”

exogenous SIRT1 protein = test: Exogenous SIRT1 expression after RNAi and cycloheximide time course, immunoblotting
Text: FIG. 13 JNK-dependent phosphorylation at S27 stabilises exogenous SIRT1 protein. a. Schematic of experimental protocol for RNA′ followed by transfection with exogenous SIRT1 expression vector (see text). b. Exogenous expression of SIRT1 in intact HCT116 cells (lane 2), JNK2-depleted cells (lane 3) and JNK1-depleted cells (lane 4) detected by immunoblotting. Lane 1 =intact, non-transfected cells. Note that in both intact cells and JNK1-depleted cells the exogenous SIRT1 is phosphorylated on S27 and S47, whereas in JNK2-depleted cells S27P levels reflect endogenous SIRT1 (lanes 1 and 3, asterix), c, d. Time course analyses of SIRT1 protein levels and SIRT1 S27P following addition of cycloheximide in intact (panel c) and JNK2-depleted (panel d) HCT116 cells as indicated. e. SIRT1 protein levels at indicated times post treatment with cycloheximide (CHX) in intact cells (solid circles, solid line) and in JNK-depleted cells (open circles, dashed line).
To further explore the relationship between SIRT1 and JNK2 we expressed exogenous . SIRT1 in HCT116 p53+/+ cells in which JNK2 had been depleted by RNAI (Methods and FIG. 13a). When expressed in intact cells exogenous SIRT1 protein was phosphorylated at both S27 and S47 (FIG. 13b, lane 2). […] In addition total exogenous SIRT1 protein levels were reduced in JNK2-depleted cells (FIG. 13b, lane 3 cp. lane 2, SIRT1), consistent with reduced SIRT1 protein stability in the absence of S27 phosphorylation. […] S47 kinase/phosphatase activity. […] Thus JNK2, but not JNK1, is required for S27 phosphorylation and associated accumulation of SIRT1 protein.
Reduced accumulation of SIRT1 protein under these conditions is consistent with the premise that JNK2-dependent phosphorylation of SIRT1 at S27P stabilises the SIRT1 protein. This was confirmed by time course studies in which exogenous SIRT1 protein levels were monitored following inhibition of protein synthesis by cycloheximide. […] In intact cells exogenous SIRT1 protein was phosphorylated at S27 (FIG. 13c) and was also stable over 9 hr (FIGS. 13c and 13e). However, in JNK2-depleted cells exogenous SIRT1 protein lacked S27P (FIG. 13d) and protein levels declined with a half life of approximately 2 hrs (FIGS. 13d and 13e). We conclude that JNK2 is required, directly or indirectly, for phosphorylation of SIRT1 at S27 and that this is linked with stabilisation of SIRT1 protein in HCT116 cancer cells.

Compound: O=c1[nH]cc(F)c(=O)[nH]1 [5-FU, 5-fluorouracil]
- apoptosis (HCT116 p53+/+ cells): apoptosis
- depletion of SIRT1 mRNA (SIRT1 mRNA; 5-FU (375 μM) for 24 h, ARPE-19 and HCT116 cells (FIG. 2a)): 80%
- SIRT1 mRNA estimated t1/2 (SIRT1 mRNA; ARPE-19 cells): ~4 h
- SIRT1 mRNA estimated t1/2 (SIRT1 mRNA; HCT116 cells): < 2 h
- lamin A/C and GAPDH mRNA levels (laminA/C and GAPDH mRNAs): relatively unaffected
- cell viability (ARPE-19 cells): remained viable
- total SIRT1 protein levels (SIRT1; ARPE-19 cells): increased 6 h after 5-FU treatment and subsequently declined by 24 h
- SIRT1 S27 phosphorylation (SIRT1; HCT116 p53+/+ cells): lost
- total SIRT1 protein levels (SIRT1; HCT116 p53+/+ cells): stable over 12 h, but declined by 24 h post-treatment
- SIRT1 S27 phosphorylation (SIRT1; HCT116 p53−/− cells): retained
- total SIRT1 protein levels (SIRT1; HCT116 p53−/− cells): remains constant up to at least 48 h
- acetylation of p53 (p53; ARPE-19 cells): undetectable
- p53 response (p53; ARPE-19 cells): attenuated
- p53 K382 acetylation (p53; HCT116 p53+/+ cells): induction
- p53 response (p53; HCT116 p53+/+ cells): sustained

Compound: JNK1 siRNA: siRNA: sense 5′-CUCCACCACCAAAGAUCCC(dTdT)-3′, antisense 5′-GGGAUCUUUGGUGGUGGAG(dTdT)-3′ (RNA, 3' dTdT, backbone not given here)
- exogenous expression of SIRT1 and its phosphorylation (exogenous SIRT1 protein; HCT116 p53+/+ cells): indistinguishable from the intact controls
- SIRT1 protein levels, S27 or S47 phosphorylation (SIRT1; ARPE-19, HCT116 p53+/+ or HCT116 p53−/− cells): no effect
- total SIRT1 protein levels (SIRT1; ARPE-19 cells): no effect

Compound: JNK2 siRNA: siRNA: sense 5′-GAGCUGGUGAAAGGUUGUG(dTdT)-3′, antisense 5′-CACAACCUUU CACCAGCUC(dTdT)-3′ (antisense CACAACCUUUCACCAGCUC; RNA, 3' dTdT, backbone not given here)
- SIRT1 mRNA levels (SIRT1 mRNA; ARPE-19 cells, 24-96 h post-transfection): remained constant
- SIRT1 mRNA levels (SIRT1 mRNA; HCT116 p53+/+ cells): absence of any reduction
- half life of exogenous SIRT1 protein (exogenous SIRT1 protein; HCT116 cells, following addition of cycloheximide): approximately 2 hrs
- S27 phosphorylation of exogenous SIRT1 protein (exogenous SIRT1 protein; HCT116 p53+/+ cells): non-phosphorylated at S27
- exogenous SIRT1 S47P (exogenous SIRT1 protein; HCT116 p53+/+ cells): clearly detectable
- total exogenous SIRT1 protein levels (exogenous SIRT1 protein; HCT116 p53+/+ cells): reduced
- total SIRT1 protein levels (SIRT1; ARPE-19 cells): reduced levels of SIRT1 protein
- SIRT1 S27 phosphorylation (SIRT1; HCT116 p53+/+ cells): loss of SIRT1 S27P
- SIRT1 S47P (SIRT1; HCT116 p53+/+ cells): barely detectable
- total SIRT1 protein levels (SIRT1; HCT116 p53+/+ cells): reduced SIRT1 protein levels
- SIRT1 protein levels or phosphorylation status (SIRT1; HCT116 p53−/− cells): little effect
